These are literature values, as cited in patent US8623825B2, “Edible fat composition for enhancing bone strength” (Enzymotec Ltd., priority 2007, dated 2014).

The subject of series [1] is bone of post-menopausal women.
The next series concerns vertebral bone. To be noted: independent of bone mineral density.

With `F` [fluoride], the Bone mass result in series [1] (fluoride treatment) was “increased bone mass”. The Skeletal fragility result in series [1] (particularly non-vertebral bones) is “increased skeletal fragility”.

Take `O=C(c1ccc(OCCN2CCCCC2)cc1)c1c(-c2ccc(O)cc2)sc2cc(O)ccc12` [raloxifene]: the Vertebral bone strength result in the series on vertebral bone is listed as “significantly improved”.
